Assay results: patent US6268362A, “Amino anthracyclinone derivatives and their use in the treatment of amyloidosis” (Pharmacia & Upjohn SpA, priority 1998, dated 2001)

Biological target: T1, Aβ1-40 peptide (Homo sapiens, UniProt P05067)
T1 construct: An Aβ1-40 peptide monomer stock solution was prepared by dissolving the peptide in dimethylsulfoxide
Test: Inhibition of aggregation of monomeric Aβ1-40 peptide stimulated by a seed of pre-formed sonicated Aβ1-40 amyloid fibrils (HPLC of residual monomer)
Format: biochemical
Conditions: 20 μM Aβ1-40 monomer, 50 μM test compound, 4 μM pre-formed sonicated Aβ1-40 fibrils, 2 h at 37° C., pH 7.4
Protocol: The compounds disclosed in the present invention interfere with the aggregation of monomeric Aβ1-40 peptide stimulated by a seed of Aβ1-40 amyloid fibrils. The activity of the compounds was assessed according to the procedure reported below.
An Aβ1-40 peptide monomer stock solution was prepared by dissolving the peptide in dimethylsulfoxide at a concentration of 33.33 mg/ml. The stock solution was further diluted 11.5 times with dimethylsulfoxide. This solution was then diluted with 10 mM phosphate buffer pH 7.4 containing 150 mM sodium chloride to prepare the test solution. To an eppendorf tube containing 47 μl of Aβ1-40 peptide monomer solution were added 3 μl of a 830 μM water solution of the test compound containing 66.4 μM, based on the Aβ1-40 monomer content, of pre-formed sonicated Aβ1-40 fibrils: the resulting solution was 20 μM in Aβ1-40 monomer, 50 μM in the test compound and contained 4 μM, based on the Aβ1-40 monomer content, of pre-formed sonicated Aβ1-40 fibrils. The aggregation was allowed to proceed for two hours at 37° C. The suspension was then centrifuged at 15000 rpm for 15 minutes at +4° C., the supernatant was collected and the Aβ1-40 monomer was quantitated by HPLC. The activity is expressed as the percent of inhibition of the aggregation of a 20 μM Aβ1-40 monomer solution stimulated by 4 μM, based on the Aβ1-40 monomer content, pre-formed sonicated Aβ1-40 fibrils.

T1 sequence (P05067 672-711 limits assumed): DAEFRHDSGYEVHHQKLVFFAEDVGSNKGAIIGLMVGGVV

| SMILES | % inhibition |
| --- | --- |
| COc1cccc2c1C(=O)c1c(O)c3c(c(O)c1C2=O)CC(O)(C(O)CN1CC=CCC1)CC3 [Compound 1d, (13R)-7-deoxy-13-dihvdro-14-(1,2,3,6-tetrahydropyridin-1-yl)daunomycinone] | 47.3% |
| COc1cccc2c1C(=O)c1c(O)c3c(c(O)c1C2=O)CC(O)(C(=O)CN1CCOCC1)CC3 (stereo not shown) [Compound A17, 7-deoxy-14-(4-morpholinyl)-daunomycinone, reference compound] | 11.4% |
| COc1cccc2c1C(=O)c1c(O)c3c(c(O)c1C2=O)CC(O)(C(=O)CN1CC=CCC1)CC3O (stereo not shown) [Compound 1a, 14-(1,2,3,6-tetrahydropyridin-1-yl)daunomycinone] | 74.1% |
| COc1cccc2c1C(=O)c1c(O)c3c(c(O)c1C2=O)CC(O)(C(=O)CN1CC=CCC1)CC3N1CCOCC1 (stereo not shown) [Compound 1k, 7-deoxy-7-(4-morpholinyl) -14-(1,2,3,6-tetrahydropyridin-1-yl)daunomycinone] | 52.1% |
